These results are taken from ChEMBL document CHEMBL1201862, “PubChem BioAssay data set” (2004).

Some test systems named below: 786-0; A549; DU-145; EKVX; HL-60; Hs-578T; IGROV-1; KM12; MCF7; NCI/ADR-RES; OVCAR-5; RXF 393; SK-MEL-2; SK-MEL-5; SK-OV-3; SNB-19; SR; T47D; UACC-62; LOX IMVI.
Common to all, as to test: growth of human tumour cells (NCI), 48 h

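Interpolation was linear, between the two tested concentrations surrounding the appropriate level; five concentrations were tested over 48 hours in 96-well plates. The concentration for 50% growth inhibition is given as GI50.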 Active and inactive are the calls of the source. Rule as the data show it: active = GI50 up to about 1.1 µM and inactive = higher.

As for `COc1ccc(C(=O)/C=C/c2ccc(OCCCCCCCCCCOc3ccc(/C=C/C(=O)c4ccc(OC)c(OC)c4)cc3)cc2)c(OC)c1`, the GI50 is > 100 µM (inactive) in the test with 786-0; > 100 µM (inactive) in the test with A549; > 100 µM (inactive) in the test on DU-145; > 100 µM (inactive) in the test on EKVX; > 100 µM (inactive) with HL-60; 76 µM (inactive) with Hs-578T. Also, the GI50 in the test on IGROV-1, in the test with KM12, in the test on MCF7, in the test on NCI/ADR-RES, in the test on OVCAR-5 and in the test with RXF 393 was > 100 µM (inactive) throughout. For the same compound, the GI50 in the test with SK-MEL-2, with SK-MEL-5, in the test on SK-OV-3, in the test on SNB-19, in the test on SR and with T47D was > 100 µM (inactive) each time. For the same compound, the GI50 with UACC-62 was > 100 µM (inactive).
Turning to `Oc1c2cccc1Cc1cccc3c1OCCOCCOCCOCCOc1c(cccc1Cc1cccc(c1O)C3)C2`, the GI50 in the test with 786-0 was > 100 µM (inactive); in the test with A549, > 100 µM (inactive); in the test with DU-145, > 100 µM (inactive); in the test with EKVX, > 100 µM (inactive); with Hs-578T, 18.4 µM (inactive); with IGROV-1, > 100 µM (inactive). For the same compound, the GI50 in the test on KM12 is > 100 µM (inactive); in the test with LOX IMVI it was > 100 µM (inactive); in the test with MCF7, > 100 µM (inactive); in the test with NCI/ADR-RES, 39.3 µM (inactive); in the test on OVCAR-5, > 100 µM (inactive); in the test with RXF 393, > 100 µM (inactive). For the same compound, the GI50 in the test with SK-MEL-2 was > 100 µM (inactive); with SK-MEL-5, > 100 µM (inactive); with SK-OV-3, > 100 µM (inactive); in the test on SNB-19 it was > 100 µM (inactive); in the test with SR it was 2.06 µM (inactive); in the test on T47D, > 100 µM (inactive). Moreover, in the test with UACC-62, the GI50 was 26.7 µM (inactive).
With `CC[C@](O)(C(=O)O)c1cc2n(c(=O)c1CO)Cc1cc3ccccc3nc1-2`, the GI50 is 0.00366 µM (active) with 786-0; 0.0261 µM (active) with A549; 0.0137 µM (active) in the test with DU-145; 0.0371 µM (active) in the test with EKVX; 0.025 µM (active) in the test on HL-60; 6.05 µM (inactive) with Hs-578T. Also, the GI50 with IGROV-1 was 0.0652 µM (active); in the test on MCF7, 0.061 µM (active); in the test with NCI/ADR-RES, 0.0254 µM (active); in the test with OVCAR-5 it was 0.0566 µM (active); with RXF 393, 0.0384 µM (active); with SK-MEL-2 it was 0.23 µM (active). Besides, the GI50 is 0.0333 µM (active) in the test with SK-MEL-5; 0.0372 µM (active) in the test with SK-OV-3; 0.025 µM (active) with SNB-19; 0.01 µM (active) in the test with SR; 0.0324 µM (active) with T47D; 0.025 µM (active) in the test on UACC-62.
Consider `O=C(O)CCC(O)=C1S(=O)(=O)OCCOS1(=O)=O`, for which the GI50 in the test with 786-0, in the test with A549, in the test with DU-145, in the test on EKVX, in the test on Hs-578T and in the test with IGROV-1 was > 100 µM (inactive) each time. For the same compound, the GI50 in the test on KM12, in the test with LOX IMVI, in the test with MCF7, in the test on NCI/ADR-RES, in the test with OVCAR-5 and in the test with RXF 393 was > 100 µM (inactive) throughout. In addition, the GI50 in the test with SK-MEL-2 was > 100 µM (inactive); with SK-MEL-5, > 100 µM (inactive); in the test with SK-OV-3, > 100 µM (inactive); in the test with SNB-19, > 100 µM (inactive); with SR it was 43.7 µM (inactive); in the test with T47D it was > 100 µM (inactive). Moreover, the GI50 in the test with UACC-62 is > 100 µM (inactive).
Consider `O=[N+]([O-])c1ccc(-n2nc3ccc4c(no[n+]4[O-])c3n2)cc1`, for which the GI50 is > 100 µM (inactive) with 786-0; 12.4 µM (inactive) in the test on A549; 35.4 µM (inactive) in the test on DU-145; 24.8 µM (inactive) in the test on EKVX; 7.35 µM (inactive) with HL-60; > 100 µM (inactive) with Hs-578T. Moreover, the GI50 in the test on IGROV-1 was > 100 µM (inactive); with KM12 it was > 100 µM (inactive); in the test on LOX IMVI, > 100 µM (inactive); in the test on MCF7, 82 µM (inactive); in the test on NCI/ADR-RES, > 100 µM (inactive); in the test with OVCAR-5, > 100 µM (inactive). The GI50 in the test on SK-MEL-2 was > 100 µM (inactive); in the test on SK-MEL-5, 80.2 µM (inactive); in the test with SK-OV-3 it was > 100 µM (inactive); in the test with SNB-19, > 100 µM (inactive); in the test on SR, > 100 µM (inactive); in the test with T47D, > 100 µM (inactive). For the same compound, the GI50 with UACC-62 is 88.3 µM (inactive).
On to `COC(=O)C1Cc2ccc3c(c2C1=O)CCCC3` (stereo not drawn), for which the GI50 with 786-0 was > 100 µM (inactive); with A549 it was > 100 µM (inactive); in the test on DU-145 it was > 100 µM (inactive); in the test with EKVX, 70.5 µM (inactive); in the test on HL-60, > 100 µM (inactive); in the test with Hs-578T, > 100 µM (inactive). In addition, the GI50 with IGROV-1 was > 100 µM (inactive); in the test on KM12, > 100 µM (inactive); in the test on LOX IMVI it was 38.1 µM (inactive); in the test with MCF7, 73.6 µM (inactive); in the test with NCI/ADR-RES, > 100 µM (inactive); in the test on OVCAR-5 it was > 100 µM (inactive). Also, the GI50 is > 100 µM (inactive) in the test on SK-MEL-2; 68.2 µM (inactive) in the test on SK-MEL-5; > 100 µM (inactive) in the test with SK-OV-3; > 100 µM (inactive) with SNB-19; 26.7 µM (inactive) with SR; 23.2 µM (inactive) in the test on T47D. Further, in the test with UACC-62, the GI50 was 81.1 µM (inactive).
With `C=C(CCC(C(=O)O)C1CCC2(C)C3=C(CCC12C)C1(C)CCC(O)C(C)(C)C1CC3)C(C)C` (stereo not drawn), the GI50 with 786-0 is 45.1 µM (inactive); in the test on A549, 17.1 µM (inactive); with DU-145, > 100 µM (inactive); with EKVX it was 27.5 µM (inactive); in the test with HL-60, > 10 µM (inactive); in the test on Hs-578T it was 77.8 µM (inactive). Besides, the GI50 in the test on IGROV-1 was 22.3 µM (inactive); with KM12, 6.38 µM (inactive); in the test with LOX IMVI, 22 µM (inactive); in the test on MCF7 it was 60.7 µM (inactive); with NCI/ADR-RES, 19.3 µM (inactive); with OVCAR-5 it was > 100 µM (inactive). Moreover, the GI50 with SK-MEL-2 is 52 µM (inactive); in the test on SK-MEL-5, 33.7 µM (inactive); with SK-OV-3 it was > 100 µM (inactive); in the test on SNB-19, > 100 µM (inactive); with SR, 12.1 µM (inactive); in the test on T47D, 58.1 µM (inactive). The GI50 with UACC-62 was 34.9 µM (inactive).
As for `O=c1n(-c2ccccc2)c(=O)n2n1C1Cc3ccccc3C12` (stereo not drawn), the GI50 is > 100 µM (inactive) in the test on 786-0; > 100 µM (inactive) in the test on A549; > 100 µM (inactive) with DU-145; > 100 µM (inactive) with EKVX; > 100 µM (inactive) in the test with HL-60; 15 µM (inactive) in the test on Hs-578T. In addition, the GI50 with IGROV-1, with KM12, with LOX IMVI, in the test with MCF7, in the test on NCI/ADR-RES and in the test on OVCAR-5 was > 100 µM (inactive) throughout. Also, the GI50 in the test with SK-MEL-2, in the test on SK-MEL-5, with SK-OV-3, in the test with SNB-19, with SR and in the test with T47D was > 100 µM (inactive) each time. Also, the GI50 in the test with UACC-62 was > 100 µM (inactive).
In the case of `O=[N+]([O-])c1ccc(/C=C(/c2ccc([N+](=O)[O-])o2)S(=O)(=O)c2ccccc2)cc1`, the GI50 is > 100 µM (inactive) in the test on 786-0; > 100 µM (inactive) in the test on A549; 35.5 µM (inactive) in the test on DU-145; 17.5 µM (inactive) with HL-60; 26.1 µM (inactive) with Hs-578T; 75.5 µM (inactive) in the test with IGROV-1. For the same compound, the GI50 with KM12 is 41.1 µM (inactive); in the test with MCF7, 40.8 µM (inactive); in the test with NCI/ADR-RES, 47.5 µM (inactive); with OVCAR-5, > 100 µM (inactive); in the test on RXF 393 it was > 100 µM (inactive); in the test with SK-MEL-2 it was > 100 µM (inactive). Besides, the GI50 in the test with SK-MEL-5 is 13.9 µM (inactive); with SK-OV-3, > 100 µM (inactive); in the test with SNB-19 it was 73.5 µM (inactive); with SR, 16.4 µM (inactive); in the test on T47D it was > 100 µM (inactive); with UACC-62, 22.2 µM (inactive).
As to `O=C1CNNC(CSc2nc3ccc(I)cc3c(=O)n2Cc2ccccc2)=N1`, the GI50 is 29.9 µM (inactive) in the test on 786-0; 38.5 µM (inactive) with A549; 22.2 µM (inactive) with DU-145; 23.6 µM (inactive) in the test with EKVX; 2.23 µM (inactive) with HL-60; 32.9 µM (inactive) in the test with Hs-578T. Further, the GI50 in the test on IGROV-1 was 18 µM (inactive); with KM12, 28.1 µM (inactive); with LOX IMVI it was 18.2 µM (inactive); with MCF7, 28.4 µM (inactive); in the test with NCI/ADR-RES it was 26.8 µM (inactive); in the test on OVCAR-5 it was 41.2 µM (inactive). In addition, the GI50 in the test with SK-MEL-2 is 16.4 µM (inactive); in the test with SK-MEL-5 it was 15.7 µM (inactive); with SK-OV-3, 33.3 µM (inactive); in the test with SNB-19 it was 53.5 µM (inactive); in the test with SR, 17.9 µM (inactive); in the test with T47D, 15.5 µM (inactive). Besides, the GI50 in the test with UACC-62 was 15.8 µM (inactive).
